The test system of experiment [1] is anti-OVA IgM and IgG antibodies. The experiment can be described thus: Combined adjuvant effect of FPPS inhibitor and TLR agonist, OVA titer. Format: in vivo, mice. The settings on record: soles of right feet. The method, then: Two compounds, TH-Z93 and Imiquimod, were formulated at a concentration of 4 mg/ml, and OVA antigen at a concentration of 10 mg/ml. When used alone, 5 μl of TH-Z93 or imiquimod was added as an adjuvant and mixed with 10 μl of antigen and 5 μl of PBS. When two adjuvants were used in combination, each of the adjuvants were added in an amount of 5 μl and mixed with 10 μl of antigen, and the total volumes were 20 μl. The mice used are of C57B/6 strain. An equal volume of PBS without any adjuvant was used for mice in the control group. The mice was injected at the soles of the right feet. On Day 7 and Day 14 after immunization, blood was taken from the mice's orbits, and 100 μl was taken for each mouse. The obtained blood was left at 4° C. overnight, and then the serum was separated. The titers of anti-OVA IgM and IgG antibodies in the serum were determined.

The target in experiment [2] is HsGGPPS (humanized geranylgeranyl pyrophosphate synthase) (Homo sapiens (Human), UniProt O95749). The experiment can be described thus: HsGGPPS enzyme inhibition test. Format: biochemical. The method, then:
The inhibitory activities of compounds TH-Z144 and TH-Z145 on GGPPS (geranylgeranyl pyrophosphate synthase) were tested by referring to the expression and purification method for HsGGPPS (humanized geranylgeranyl pyrophosphate synthase) in the reference (Szabo, C. M., et al., Inhibition of Geranylgeranyl Diphosphate Synthase by Bisphosphonates and Diphosphates: A Potential Route to New Bone Antiresorption and Antiparasitic Agents. Journal of Medicinal Chemistry, 2002. 45 (11): p. 2185-2196.) and the method for testing enzyme activity in the reference (Zhang, Y., et al., Lipophilic Bisphosphonates as Dual Farnesyl/Geranylgeranyl Diphosphate Synthase Inhibitors: An X-ray and NMR Investigation. Journal of the American Chemical Society, 2009. 131 (14): p. 5153-5162.) The data of the activity test were as follows: […]

The subject of experiment [3] is anti-OVA IgM and IgG antibodies. The experiment can be described thus: OVA evaluation system: adjuvant activity in antibody titer in mice. Format: in vivo. The settings on record: GGPPS inhibitors 100 μg with OVA, right sole, Day 7 and Day 14. The protocol:
OVA evaluation system was used to determine adjuvant activity in antibody titer.
Mice of C57B/6 strain were used. The mice in the experimental group were injected with the obtained mixture of each of the statins and OVA antigen through soles injection, with 20 μl for each mouse. The mice in the control group were injected with a 1:1 mixture of PBS or DMSO (10 μl) and 10 μl OVA antigen (PBS or DMSO is 10 μl, respectively, and the antigen is 10 μl) through soles injection, with 20 μl for each mouse. On Day 7 and Day 14 after immunization, blood was taken from the mice's orbits, with 100 μl was taken from each mouse. The obtained blood was left at 4° C. overnight, and centrifuged at 6000 rpm for 8 min. The supernatant serum was removed and the titers of anti-OVA IgM and IgG antibodies in the serum were determined.
Test of the OVA antibody titer: The OVA protein was diluted to a concentration of 2 μg/ml with a carbonate solution of pH 9.6, coated in a 96-well ELISA plate at 50 μl per well, and left at 4° C. overnight. The ELISA plate was washed five times with PBS containing 0.05% Tween 20, blocked with 1% BSA solution at 200 μl per well, and incubated at room temperature for 2 h. The ELISA plate was washed five times with PBST (Phosphate Buffered Saline with Tween), a 2-fold serial dilution of the mouse serum after immunized with OVA was added at 50 μl per well and incubated at room temperature for 2 h. After the ELISA plate was washed five times with PBST, HRP (horseradish peroxidase)-labeled goat-anti-mouse IgM or IgG antibody was added and incubated at room temperature for 45 min. The ELISA plate was washed five times with PBST, and a color developing solution of sodium citrate OPD (o-phenylenediamine) was added. After 10 min of color development in the dark, sulfuric acid was added to terminate the reaction. The reading was performed with ELIASA OD490. The maximum serum dilution factor, when the ratio of light absorptions of the experimental group to the control group was >2.0, was the titer of the anti-OVA antibody in the serum.
Each test compound was formulated at a concentration of 2 mg/ml and the concentration of OVA antigen was 2 mg/ml. Each compound was mixed with OVA at 1:1. Each C57B/6 mouse in the experimental group was injected with 100 μl of the mixture (containing 50 μl of the antigen and 50 μl of the compound) by intramuscular injection at the right thigh. On Day 7 and Day 14 after immunization, blood was taken from the mice's orbit, and 100 μl was taken for each mouse. The obtained blood was allowed to stand at 4° C. overnight, and centrifuged at 6000 rpm for 8 min. The supernatant serum was removed, and the titers of anti-OVA IgM and IgG antibodies in the serum were determined.
Method: each of the test compounds (the 10 bisphosphonates as described above) was mixed with the OVE antigen at 1:1, and the concentrations of bisphosphonic acid and OVA were both 10 mg/ml. Mice of C57B/6 strain were used. The mice in the experimental group were injected with the mixture of each of the test compounds and OVA antigen through soles injection, with 20 μl for each mouse, and wherein the amounts of OVA antigen and each of the test compounds were both 100 ug. The mice in the control group were injected with a 1:1 mixture of […] and 10 μl OVA antigen through sole injection. On Day 7 and Day 14 after immunization, blood was taken from the mice's orbits, and 100 μl was taken from each mouse.
The obtained blood was left at 4° C. overnight, and centrifuged at 6000 rpm for 8 min. The supernatant serum was removed, and the titers of anti-OVA IgM and IgG antibodies in the serum were determined.
Method: TH-Z144 and TH-Z145 were prepared at the concentration of 10 mg/ml, the concentration of OVA antigen was also 10 mg/ml, and the compound and the antigen were mixed at 1:1. Mice of C57B/6 strain were used.

In experiment [4] the test system is Plasmodium falciparum 3D7. The experiment can be described thus: Test of plasmodium activity (SYBR-GREEN1). The experiment is classed as cell-based. The settings on record: infected erythrocytes, 72 hours; read-out: Malaria (IC50/μM). The protocol:
Plasmodium falciparum 3D7 was cultured with […] medium mixed with 10% human O-type blood serum and 25 mM HEPES. The cultivation process was maintained in a carbon dioxide incubator under 5% carbon dioxide. In vitro drug testing experiments were performed on a 96-well plate. The test drug was dissolved in PBS and pre-diluted with complete medium. Infected erythrocytes were cultured in triplicate for 72 hours in 3-fold serial dilutions of drug. Then an equal amount of SYBR-GREEN1 was added to each well. The detection was then performed at 485 nm for excitation light and 538 nm for emitted light. […] ORIGIN 8.0 software was used to plot and fit.

Experiment [5] has as its system MDA-MB-231 cells. The experiment can be described thus: MDA-MB-231 proliferation MTT test. Format: cell-based, human. The settings on record: 72 hours. The method, then: • Drug dissolution: […] The prepared bisphosphonate stock solution was diluted with DMEM complete medium. The maximum concentration was 1 mM. The dilution was performed serially in a ratio of 1:3.2 with a total of 11 concentration gradients; a. MDA-MB-231 cells were digested the day before. Centrifugation was performed at 1000 rmp for 3 min. The cells were counted. The cells were seeded into a 96-well plate at 3000 cells/well in a volume of 100 μl per well and cultured for 14-16 h. It should be noted that the cell count should be accurate, and the amount of cells seeded per well should be consistent. The cell suspension can be gently shaken in the intermittence of plating, or a row of cells were plated and the cell suspension was pipetted gently with a pipette. The speed of pipetting into the 96-well plate with a pipette should not be too fast or too slow, in order to avoid uneven distribution of cells in the plate, affecting the experiments; the wells at the fringe of the 96-well plate will evaporate slightly faster and the concentration of the solution will change slightly faster. Under normal situation, the central 60 wells should be selected for stimulation. Also, the pipetted liquid should be prevented from creating bubbles. b. After the cells had adhered, the liquid in the 96-well plate was pipetted out and discarded. […] c. 72 hours after the action of drug, the prepared MTT solution (immediately before use, a certain amount of MTT powder was weighed and dissolved in PBS at 5 mg/ml, under dark, filter with 0.22 filter membrane) was added directly to each well with 20 μl per well and continued to culture for 4 hours; d. The filter paper (which can be replaced by an absorbent paper) was laid, and the plate was inverted gently (be careful to prevent the crystal in the well from dropping). After the liquid in the wells was removed, 150 μl of DMSO was added to dissolve the crystals, and the mixture was shaken thoroughly with a shaker for a period of time just to dissolve the crystals. The absorbance (OD value) of each well was measured at 570 nm with ELIASA. The mean value of blank control was calculated as OD Blank. OD value for each well=OD measured-OD Blank. ODNT mean value was calculated. […] Mean and standard error were then calculated. The mean and standard error of each group of drug concentration (uM) and corresponding drug inhibition rate were fitted by Graph Prism software to obtain the IC50 of the drug.
In general terms: Formazan colour is commonly taken as a measure of viable cells.

Experiment [6] deals with humanized farnesyl pyrophosphate synthase (HsFPPS) (Homo sapiens (Human), UniProt P14324). The experiment in a line: In vitro HsFPPS enzyme activity assay. Format: biochemical. The method, then:
The measurement method is briefly described as follows: the expression of HsFPPS with 6 consecutive His at the N-terminus was induced in vitro, collected, and purified by Ni column. An in vitro HsFPPS enzyme activity assay was performed in a 96-well plate with 200 μl of solution per well. The buffer of the system was 25 mM HEPES, 2.5 mM MgCl2, pH 7.4. Using DMAPP and IPP as reaction substrates, the change of the UV value at a wavelength of 360 nm was monitored in real time in a phosphate lyase system. The ORIGIN 8.0 software was used to plot and fit. The IC50 values for the inhibition of FPPS by the TH-Z80 series of compounds were shown in the following table, in micromoles per liter (μM).
HsFPPs with 6 consecutive His at the N-terminus was induced to express in vitro, collected, and purified by Ni column. In vitro HsFPPs enzymatic activity assay was performed in a 96-well plate at 200 μl of solution per well. The buffer of the system was 25 mM HEPES, 2.5 mM MgCl2, pH 7.4. Using DMAPP and IPP as reaction substrates, the changes of UV at 360 nm were monitored in real-time in phosphate lyase system. ORIGIN 8.0 software was used to plot and fit.

For experiment [7], the system named is PvGGPPS (geranylgeranyl pyrophosphate synthase from Plasmodium). The experiment can be described thus: In vitro PvGGPPS enzymatic activity assay. Format: biochemical. The settings on record: GPP and IPP substrates. The method, then: PvGGPPs with 6 consecutive His at the N-terminus was induced to express in vitro, collected, and purified by Ni column. In vitro PvGGPPs enzymatic activity assay was performed in a 96-well plate at 200 μl of solution per well. The buffer of the system was 25 mM HEPES, 2.5 mM MgCl2, pH 7.4. Using GPP and IPP as reaction substrates, a 360 nm continuous spectrophotometric detection was performed in a phosphate lyase system. ORIGIN 8.0 software was used to plot and fit.

Setting [8] is: Example 15 table, read-out: HsFPPS (IC50/μM).
Setting [9] is: TH-Z80 series, DMAPP and IPP substrates, pH 7.4, read-out: IC50 for inhibition of FPPS.

Like-named read-outs stand apart in the source and are kept apart here.

Sequence of humanized farnesyl pyrophosphate synthase (HsFPPS) (P14324 whole entry, looked up): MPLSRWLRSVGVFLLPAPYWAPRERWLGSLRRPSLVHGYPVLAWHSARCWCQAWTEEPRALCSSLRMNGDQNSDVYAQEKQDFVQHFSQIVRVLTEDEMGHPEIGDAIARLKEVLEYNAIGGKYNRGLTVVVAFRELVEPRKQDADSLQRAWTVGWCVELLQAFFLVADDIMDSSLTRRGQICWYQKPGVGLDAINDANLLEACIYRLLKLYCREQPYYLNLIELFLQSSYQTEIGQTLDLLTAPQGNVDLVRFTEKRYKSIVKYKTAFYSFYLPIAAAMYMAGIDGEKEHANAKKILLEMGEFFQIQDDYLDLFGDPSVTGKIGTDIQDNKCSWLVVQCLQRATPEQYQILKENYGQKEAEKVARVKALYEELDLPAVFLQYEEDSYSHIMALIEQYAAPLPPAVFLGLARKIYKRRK
Sequence of HsGGPPS (humanized geranylgeranyl pyrophosphate synthase) (O95749 whole entry, looked up): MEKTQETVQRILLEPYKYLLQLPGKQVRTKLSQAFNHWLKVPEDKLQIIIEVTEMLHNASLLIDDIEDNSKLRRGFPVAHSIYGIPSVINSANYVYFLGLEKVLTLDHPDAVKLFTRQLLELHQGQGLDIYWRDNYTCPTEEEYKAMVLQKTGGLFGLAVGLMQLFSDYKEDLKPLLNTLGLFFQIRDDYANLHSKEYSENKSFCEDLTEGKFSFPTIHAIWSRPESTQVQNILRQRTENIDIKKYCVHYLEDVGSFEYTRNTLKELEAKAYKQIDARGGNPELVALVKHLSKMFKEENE

Consider `CC(C)Cn1cnc2c(N)nc3ccccc3c21` [imiquimod, reference compound], for which, in experiment [1], the “antibody titers vs PBS control, adjuvant used alone” value is “significant high titers”.

For `CCCCCCOc1cccc(CC(P(=O)(O)O)P(=O)(O)O)c1` [TH-Z144, (2-(3-(hexyloxy)phenyl)ethane-1,1-diyl)bisphosphonic acid], in experiment [2], the “IC50 (inhibition of GGPPS)” value was “effectively inhibit the activity of GGPPS”. In addition, in experiment [2] (read-out: IC50 (inhibition of GGPPS)), the IC50 amounted to 2760 nM. The “IgM and IgG antibody titers vs PBS control” value in experiment [3] was “significantly higher titers”.

Take `CCOc1ccc2c(c1)ncn2CC(O)(P(=O)(O)O)P(=O)(O)O` [TH-Z148]: the IC50 in experiment [4] is 1.86 µM; in experiment [5], 7300 nM; in experiment [6] (setting [8]), 0.068 µM; in experiment [6] (setting [9]), 0.068 µM; in experiment [7], 0.56 µM.

Regarding `CCCOc1ccc2c(c1)ncn2CC(O)(P(=O)(O)O)P(=O)(O)O` [TH-Z149], the IC50 came out at 0.92 µM in experiment [4]; 36100 nM in experiment [5]; 0.27 µM in experiment [6] (setting [8]); 0.27 µM in experiment [6] (setting [9]); 0.47 µM in experiment [7].

`CCCCOc1ccc2c(c1)ncn2CC(O)(P(=O)(O)O)P(=O)(O)O` [TH-Z150]: the IC50 in experiment [4] was 0.78 µM; in experiment [5] it was 128000 nM; in experiment [6] (setting [8]) it was 0.14 µM; in experiment [6] (setting [9]) it was 0.14 µM; in experiment [7], 0.28 µM.

The record behind these values is patent US20250367283A1, “MEVALONATE PATHWAY INHIBITOR AS HIGHLY-EFFICIENT VACCINE ADJUVANT” (Tsinghua University, priority 2015, published 2025).
